Assay results as given in patent publication US5270312A, “Substituted piperazines as central nervous system agents” (Warner-Lambert Company, priority 1991, dated 1993).
pIC50: −log10 of the molar value.

What was measured:
[1] = biological target: [^3 H]-spiroperidol binding (receptor assay); test: Inhibition of [^3 H]spiroperidol binding, receptor assay
Description: (§1) The compounds of Formula I are valuable dopaminergic agents. […] Thus, the compounds of Formula I were tested for their ability to inhibit locomotor activity in mice according to the assay described by J. R. McLean, et al, Pharmacology, Biochemistry and Behavior, Volume 8, pages 97-99 (1978); for their ability to inhibit [^3 H]-spiroperidol binding in a receptor assay described by D. Grigoriadis and P. Seeman, Journal of Neurochemistry, Volume 44, pages 1925-1935 (1985); and for their ability to inhibit dopamine synthesis in rats according to the protocol described by J. R. Walters and R. H. Roth, Naunyn-Schmiedeberg's Archives of Pharmacology, Volume 296, pages 5-14 (1976). The above test methods are incorporated herein by reference. The data in the table show the dopaminergic activity of representative compounds of Formula 1.

[2] = tested on: locomotor activity in mice; test: Inhibition of locomotor activity in mice; assay type: in vivo; details: Mus musculus, IP
Description: as §1

[3] = tested on: brain dopamine synthesis in rats; test: Reversal of brain dopamine synthesis in rats (inhibition of dopamine synthesis); assay type: in vivo; details: 10 mg/kg, IP
Description: as §1

pIC50 [1] | Structure (SMILES) | ED50 [2] [mg/kg] | % Reversal of Brain Dopamine Synthesis in Rats [3] [%]
6.75 | C(#Cc1cnc2ccccc2c1)CCN1CCN(c2ccccn2)CC1 [Example 1, 3-[4-[4-(2-Pyridinyl)-1-piperazinyl]-1-butynyl]-quinoline] | 1.5 | 
5.19 | C(#Cc1cccnc1)CCN1CCN(c2ccccn2)CC1 [Example 3, 1-(2-Pyridinyl)-4-[4-(3-pyridinyl)-3-butynyl]-piperazine] | 2.2 | 

The next lines start with the compound.

Structure (SMILES) | pIC50 [1] | ED50 [2] [mg/kg] | % Reversal of Brain Dopamine Synthesis in Rats [3] [%]
Fc1ccc(N2CCN(CCC#Cc3cccnc3)CC2)cc1 [Example 2, 1-(4-Fluorophenyl)-4-[4-(3-pyridinyl)-3-butynyl]-piperazine] | 5.63 | 4.7 | 20
O=[N+]([O-])c1ccc(C#CCCN2CCN(c3ccccn3)CC2)nc1 [Example 5, 1-[4-(5-Nitro-2-pyridinyl)-3-butynyl]-4-(2-pyridinyl)piperazine] | < 5.00 | 14.1 | 
O=[N+]([O-])c1ccc(C#CCCN2CCN(c3ccccn3)CC2)cc1 [Example 6, 1-[4-(4-Nitrophenyl)-3-butynyl]-4-(2-pyridinyl)-piperazine] | 5.60 | 7.7 | 
Nc1ccc(C#CCCN2CCN(c3ccccn3)CC2)nc1 [Example 7, 6-[4-[4-(2-Pyridinyl)-1-piperazinyl]-1-butynyl]-3-pyridinamine] | 5.72 | 0.35 | 24
Nc1ccc(C#CCCN2CCN(c3ccccn3)CC2)cc1 [Example 8, 4-[4-[4-(2-Pyridinyl)-1-piperazinyl]-1-butynyl]-benzenamine] | 6.21 | 0.56 | 63
